Key:
sheep = conditions: in vivo; cited from earlier work
[1] = biological target: brevetoxin receptor (site five of voltage gated sodium channels); type: binding
brevenal receptor = type: binding

Compound: C=C/C=C\CC[C@H]1O[C@H]2CC[C@@]3(C)O[C@H]4[C@@H](O)C[C@@]5(C)O[C@@H](CC/C=C(C)/C(C)=C/C=O)[C@@H](C)C[C@H]5O[C@@H]4C[C@@H]3O[C@@H]2CC[C@@]1(C)O [Compound 3, brevenal]
- bronchoconstriction (effect on RL) (sheep): no effects observed
- Ki [1]: 1130 ± 153 nM
- Ki (brevenal receptor): 137 ± 16 nM

Compound: C=C(C=O)C[C@@H]1C[C@H](O)[C@]2(C)O[C@@H]3C[C@@H]4O[C@@H]5C[C@]6(C)O[C@]7(C)CC[C@@H]8O[C@@H]9C[C@]%10(C)O[C@@H]%11C(C)=CC(=O)O[C@H]%11C[C@H]%10O[C@H]9C[C@@H](C)[C@H]8O[C@H]7C[C@H]6O[C@H]5C/C=C\[C@H]4O[C@H]3C[C@H]2O1 [brevetoxin, PbTx-2]
- increase in RL (pulmonary resistance) (sheep): 221% ± 21%

From article PMC4012454 (Marine Drugs, 2014)
